Measurements published in PubChem BioAssay AID2060614 (Molecular Pharmacology Branch, DTP, NCI, 2025).

Tested on: 598228-144-R-J1-PDC complex spheroids, viability
Assay: Anticancer human tumor 598228-144-R-J1-PDC patient-derived serous endometrial adenocarcinoma cell line growth inhibition [CLK]
Conditions: for IC50: curve of first compound; for viability, T/C: stronger effect = lower value
How it was run: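 Multi-cell-type spheroids combined patient-derived tumor cells with HUVEC endothelial cells and human mesenchymal stem cells. Paired agents were dosed in half-log steps down from about clinical Cmax, or from 10 microM where Cmax was unknown.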

[1] = second compound 0.0316 µM, first compound 0.0316 µM
[2] = second compound 0.0316 µM, first compound 0.1 µM
[3] = second compound 0.0316 µM, first compound 0.316 µM
[4] = second compound 0.0316 µM, first compound 1 µM
[5] = second compound 0.0316 µM, first compound 3.16 µM
[6] = second compound 0.0316 µM, first compound 10 µM
[7] = second compound 0.1 µM, first compound 0.0316 µM
[8] = second compound 0.1 µM, first compound 0.1 µM
[9] = second compound 0.1 µM, first compound 0.316 µM
[10] = second compound 0.1 µM, first compound 1 µM
[11] = second compound 0.1 µM, first compound 3.16 µM
[12] = second compound 0.1 µM, first compound 10 µM
[13] = second compound 0.316 µM, first compound 0.0316 µM
[14] = second compound 0.316 µM, first compound 0.1 µM
[15] = second compound 0.316 µM, first compound 0.316 µM
[16] = second compound 0.316 µM, first compound 1 µM
[17] = second compound 0.316 µM, first compound 3.16 µM
[18] = second compound 0.316 µM, first compound 10 µM
[19] = second compound 1 µM, first compound 0.0316 µM
[20] = second compound 1 µM, first compound 0.1 µM
[21] = second compound 1 µM, first compound 0.316 µM
[22] = second compound 1 µM, first compound 1 µM
[23] = second compound 1 µM, first compound 3.16 µM
[24] = second compound 1 µM, first compound 10 µM
[25] = second compound 3.16 µM, first compound 0.0316 µM
[26] = second compound 3.16 µM, first compound 0.1 µM
[27] = second compound 3.16 µM, first compound 0.316 µM
[28] = second compound 3.16 µM, first compound 1 µM
[29] = second compound 3.16 µM, first compound 3.16 µM
[30] = second compound 3.16 µM, first compound 10 µM
[31] = second compound 10 µM, first compound 0.0316 µM
[32] = second compound 10 µM, first compound 0.1 µM
[33] = second compound 10 µM, first compound 0.316 µM
[34] = second compound 10 µM, first compound 1 µM
[35] = second compound 10 µM, first compound 3.16 µM
[36] = second compound 10 µM, first compound 10 µM
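Further: spheroids exposed to compounds for seven days before readout.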
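Wherever viability, T/C is given: 100% = DMSO vehicle control wells.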

`CC1(C)CCC(CN2CCN(c3ccc(C(=O)NS(=O)(=O)c4ccc(NCC5CCOCC5)c([N+](=O)[O-])c4)c(Oc4cnc5[nH]ccc5c4)c3)CC2)=C(c2ccc(Cl)cc2)C1` + CN1CCN(c2cc(C(=O)Nc3cc4cc(-c5cnn(C)c5)ccc4cn3)ccn2)CC1 gave an IC50 (second compound 0.0316 µM) of 7680 nM, an IC50 (second compound 0.1 µM) of 7690 nM and an IC50 (second compound 0.316 µM) of less than 31.6 nM. The IC50 (second compound 1 µM) was less than 31.6 nM, the IC50 (second compound 3.16 µM) was less than 31.6 nM and the IC50 (second compound 10 µM) was less than 31.6 nM. The viability, T/C [1] was 138%, the viability, T/C [2] was 113% and the viability, T/C [3] was 111%. The viability, T/C [4] was 118%, the viability, T/C [5] was 114% and the viability, T/C [6] was 30.9%. The viability, T/C [7] was 116%, the viability, T/C [8] was 121% and the viability, T/C [9] was 116%. The viability, T/C [10] was 124%, the viability, T/C [11] was 113% and the viability, T/C [12] was 31%. The viability, T/C [13] was 19.3%, the viability, T/C [14] was 16.8% and the viability, T/C [15] was 14.4%. For the same compound, the viability, T/C [16] was 15.5%, the viability, T/C [17] was 11.9% and the viability, T/C [18] was 7.07%. The viability, T/C [19] was 1.25%, the viability, T/C [20] was 1.59% and the viability, T/C [21] was 2.76%. For the same compound, the viability, T/C [22] was 1.46%, the viability, T/C [23] was 2.58% and the viability, T/C [24] was 1.73%. For the same compound, the viability, T/C [25] was 1.65%, the viability, T/C [26] was 3.1% and the viability, T/C [27] was 1.66%. It also gave a viability, T/C [28] of 1.86%, a viability, T/C [29] of 3.99% and a viability, T/C [30] of 4.73%. It also gave a viability, T/C [31] of 0.92%, a viability, T/C [32] of 2.13% and a viability, T/C [33] of 0.62%. For the same compound, the viability, T/C [34] was 0.79%, the viability, T/C [35] was 2.58% and the viability, T/C [36] was 3.9%.

Work on `CC1COCCN1c1cc(C2(S(C)(=N)=O)CC2)nc(-c2ccnc3[nH]ccc23)n1` (stereo not drawn) + CN1CCN(c2cc(C(=O)Nc3cc4cc(-c5cnn(C)c5)ccc4cn3)ccn2)CC1 yielded an IC50 (second compound 0.0316 µM) of 6130 nM, an IC50 (second compound 0.1 µM) of 3010 nM and an IC50 (second compound 0.316 µM) of less than 31.6 nM. For the same compound, the IC50 (second compound 1 µM) was less than 31.6 nM, the IC50 (second compound 3.16 µM) was less than 31.6 nM and the IC50 (second compound 10 µM) was less than 31.6 nM. For the same compound, the viability, T/C [1] was 126%, the viability, T/C [2] was 125% and the viability, T/C [3] was 105%. For the same compound, the viability, T/C [4] was 102%, the viability, T/C [5] was 63.5% and the viability, T/C [6] was 38.3%. The viability, T/C [7] was 127%, the viability, T/C [8] was 122% and the viability, T/C [9] was 110%. It also gave a viability, T/C [10] of 89.1%, a viability, T/C [11] of 46% and a viability, T/C [12] of 28.6%. For the same compound, the viability, T/C [13] was 17.1%, the viability, T/C [14] was 16.4% and the viability, T/C [15] was 17.9%. It also gave a viability, T/C [16] of 14.8%, a viability, T/C [17] of 16.3% and a viability, T/C [18] of 13.3%. For the same compound, the viability, T/C [19] was 1.37%, the viability, T/C [20] was 1.72% and the viability, T/C [21] was 2.93%. For the same compound, the viability, T/C [22] was 1.07%, the viability, T/C [23] was 2.89% and the viability, T/C [24] was 7.44%. It also gave a viability, T/C [25] of 1.86%, a viability, T/C [26] of 3.02% and a viability, T/C [27] of 2%. It also gave a viability, T/C [28] of 1.65%, a viability, T/C [29] of 3.13% and a viability, T/C [30] of 7.42%. It also gave a viability, T/C [31] of 1.07%, a viability, T/C [32] of 1.83% and a viability, T/C [33] of 2.32%. The viability, T/C [34] was 0.91%, the viability, T/C [35] was 2.14% and the viability, T/C [36] was 3.43%.

`NC(=O)C(=Cn1cnc(-c2cc(C(F)(F)F)cc(C(F)(F)F)c2)n1)c1cncnc1` + CN1CCN(c2cc(C(=O)Nc3cc4cc(-c5cnn(C)c5)ccc4cn3)ccn2)CC1 gave an IC50 (second compound 0.0316 µM) of 236 nM, an IC50 (second compound 0.1 µM) of 344 nM and an IC50 (second compound 0.316 µM) of less than 9.49 nM. The IC50 (second compound 1 µM) was less than 9.49 nM, the IC50 (second compound 3.16 µM) was less than 9.49 nM and the IC50 (second compound 10 µM) was less than 9.49 nM. It also gave a viability, T/C (second compound 0.0316 µM, first compound 0.00949 µM) of 108%, a viability, T/C (second compound 0.0316 µM, first compound 0.03 µM) of 109% and a viability, T/C (second compound 0.0316 µM, first compound 0.0949 µM) of 72.9%. It also gave a viability, T/C (second compound 0.0316 µM, first compound 0.3 µM) of 47.6%, a viability, T/C (second compound 0.0316 µM, first compound 0.949 µM) of 29.3% and a viability, T/C (second compound 0.0316 µM, first compound 3 µM) of 37.8%. It also gave a viability, T/C (second compound 0.1 µM, first compound 0.00949 µM) of 114%, a viability, T/C (second compound 0.1 µM, first compound 0.03 µM) of 87.4% and a viability, T/C (second compound 0.1 µM, first compound 0.0949 µM) of 76.9%. The viability, T/C (second compound 0.1 µM, first compound 0.3 µM) was 47.7%, the viability, T/C (second compound 0.1 µM, first compound 0.949 µM) was 38.9% and the viability, T/C (second compound 0.1 µM, first compound 3 µM) was 9.13%. The viability, T/C (second compound 0.316 µM, first compound 0.00949 µM) was 12.9%, the viability, T/C (second compound 0.316 µM, first compound 0.03 µM) was 6.08% and the viability, T/C (second compound 0.316 µM, first compound 0.0949 µM) was 0.74%. The viability, T/C (second compound 0.316 µM, first compound 0.3 µM) was 0.62%, the viability, T/C (second compound 0.316 µM, first compound 0.949 µM) was 2.45% and the viability, T/C (second compound 0.316 µM, first compound 3 µM) was 1.39%. The viability, T/C (second compound 1 µM, first compound 0.00949 µM) was 0.59%, the viability, T/C (second compound 1 µM, first compound 0.03 µM) was 0.85% and the viability, T/C (second compound 1 µM, first compound 0.0949 µM) was 1.1%. It also gave a viability, T/C (second compound 1 µM, first compound 0.3 µM) of 1.03%, a viability, T/C (second compound 1 µM, first compound 0.949 µM) of 0.66% and a viability, T/C (second compound 1 µM, first compound 3 µM) of 0.41%. It also gave a viability, T/C (second compound 3.16 µM, first compound 0.00949 µM) of 1.32%, a viability, T/C (second compound 3.16 µM, first compound 0.03 µM) of 2.21% and a viability, T/C (second compound 3.16 µM, first compound 0.0949 µM) of 2.27%. It also gave a viability, T/C (second compound 3.16 µM, first compound 0.3 µM) of 1.81%, a viability, T/C (second compound 3.16 µM, first compound 0.949 µM) of 4.57% and a viability, T/C (second compound 3.16 µM, first compound 3 µM) of 0.46%. It also gave a viability, T/C (second compound 10 µM, first compound 0.00949 µM) of 0.86%, a viability, T/C (second compound 10 µM, first compound 0.03 µM) of 0.87% and a viability, T/C (second compound 10 µM, first compound 0.0949 µM) of 1.32%. The viability, T/C (second compound 10 µM, first compound 0.3 µM) was 0.79%, the viability, T/C (second compound 10 µM, first compound 0.949 µM) was 1.73% and the viability, T/C (second compound 10 µM, first compound 3 µM) was 0.39%.

`Nc1ccccc1NC(=O)c1ccc(CNC(=O)OCc2cccnc2)cc1` + CN1CCN(c2cc(C(=O)Nc3cc4cc(-c5cnn(C)c5)ccc4cn3)ccn2)CC1 gave an IC50 (second compound 0.0316 µM) of 1780 nM, an IC50 (second compound 0.1 µM) of 2170 nM and an IC50 (second compound 0.316 µM) of less than 31.6 nM. The IC50 (second compound 1 µM) was less than 31.6 nM, the IC50 (second compound 3.16 µM) was less than 31.6 nM and the IC50 (second compound 10 µM) was less than 31.6 nM. It also gave a viability, T/C [1] of 125%, a viability, T/C [2] of 114% and a viability, T/C [3] of 93.4%. It also gave a viability, T/C [4] of 68.2%, a viability, T/C [5] of 32.4% and a viability, T/C [6] of 3.45%. For the same compound, the viability, T/C [7] was 121%, the viability, T/C [8] was 123% and the viability, T/C [9] was 97.2%. It also gave a viability, T/C [10] of 71.3%, a viability, T/C [11] of 41% and a viability, T/C [12] of 0.32%. It also gave a viability, T/C [13] of 17.1%, a viability, T/C [14] of 14.1% and a viability, T/C [15] of 13%. The viability, T/C [16] was 10.7%, the viability, T/C [17] was 1.75% and the viability, T/C [18] was 0.23%. The viability, T/C [19] was 1.29%, the viability, T/C [20] was 1.3% and the viability, T/C [21] was 1.11%. The viability, T/C [22] was 1.01%, the viability, T/C [23] was 1.46% and the viability, T/C [24] was 0.57%. It also gave a viability, T/C [25] of 1.49%, a viability, T/C [26] of 3.39% and a viability, T/C [27] of 1.88%. It also gave a viability, T/C [28] of 1.93%, a viability, T/C [29] of 1.66% and a viability, T/C [30] of 0.89%. It also gave a viability, T/C [31] of 0.8%, a viability, T/C [32] of 0.77% and a viability, T/C [33] of 1.17%. For the same compound, the viability, T/C [34] was 1.13%, the viability, T/C [35] was 2.8% and the viability, T/C [36] was 2.51%.
